Experimental data from the supplement of paper PMC10307832.

Experiments:
Experiment in all cases: relative viability (nuclei count vs DMSO), 5 days (fraction); higher = more cells survive
Dinaciclib + Navitoclax = compound: CCc1cnn2c(NCc3ccc[n+]([O-])c3)cc(N3CCCC[C@H]3CCO)nc12 [Dinaciclib] + CC1(C)CCC(c2ccc(Cl)cc2)=C(CN2CCN(c3ccc(C(=O)NS(=O)(=O)c4ccc(N[C@H](CCN5CCOCC5)CSc5ccccc5)c(S(=O)(=O)C(F)(F)F)c4)cc3)CC2)C1 [Navitoclax] (partner 0.5 µM)
How it was run: (§1)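 Five library-drug doses in √10 steps were combined with a fixed anchor-drug dose, or a single drug was given alone, by pin tool to lung cancer cell lines in 1536-well plates the day after seeding. Nuclei were stained and counted after 5 days. Relative viability is the nuclei count in treated wells over that in vehicle wells, taken as the median of duplicate plates.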

Dinaciclib + Foretinib = compound: CCc1cnn2c(NCc3ccc[n+]([O-])c3)cc(N3CCCC[C@H]3CCO)nc12 [Dinaciclib] + COc1cc2c(Oc3ccc(NC(=O)C4(C(=O)Nc5ccc(F)cc5)CC4)cc3F)ccnc2cc1OCCCN1CCOCC1 [Foretinib] (partner 0.25 µM)
How it was run: as §1

Dinaciclib + OSI-027 = compound: CCc1cnn2c(NCc3ccc[n+]([O-])c3)cc(N3CCCC[C@H]3CCO)nc12 [Dinaciclib] + COc1cccc2cc(-c3nc([C@H]4CC[C@H](C(=O)O)CC4)n4ncnc(N)c34)[nH]c12 [OSI-027] (partner 0.5 µM)
How it was run: as §1

Dinaciclib + Tozasertib = compound: CCc1cnn2c(NCc3ccc[n+]([O-])c3)cc(N3CCCC[C@H]3CCO)nc12 [Dinaciclib] + Cc1cc(Nc2cc(N3CCN(C)CC3)nc(Sc3ccc(NC(=O)C4CC4)cc3)n2)n[nH]1 [Tozasertib] (partner 0.1 µM)
How it was run: as §1

Dinaciclib + Pemetrexed = compound: CCc1cnn2c(NCc3ccc[n+]([O-])c3)cc(N3CCCC[C@H]3CCO)nc12 [Dinaciclib] + Nc1nc2[nH]cc(CCc3ccc(C(=O)N[C@@H](CCC(=O)O)C(=O)O)cc3)c2c(=O)[nH]1 [Pemetrexed] (partner 0.2 µM)
How it was run: as §1

Cell Line	relative viability (Dinaciclib + Navitoclax; first compound 0.009487 µM)	relative viability (Dinaciclib + Navitoclax; first compound 0.03 µM)	relative viability (Dinaciclib + Navitoclax; first compound 0.09487 µM)	relative viability (Dinaciclib + Navitoclax; first compound 0.3 µM)	relative viability (Dinaciclib + Foretinib; first compound 0.009487 µM)	relative viability (Dinaciclib + Foretinib; first compound 0.03 µM)	relative viability (Dinaciclib + Foretinib; first compound 0.09487 µM)	relative viability (Dinaciclib + Foretinib; first compound 0.3 µM)	relative viability (Dinaciclib + OSI-027; first compound 0.009487 µM)	relative viability (Dinaciclib + OSI-027; first compound 0.03 µM)	relative viability (Dinaciclib + OSI-027; first compound 0.09487 µM)	relative viability (Dinaciclib + OSI-027; first compound 0.3 µM)	relative viability (Dinaciclib + Tozasertib; first compound 0.009487 µM)	relative viability (Dinaciclib + Tozasertib; first compound 0.03 µM)	relative viability (Dinaciclib + Tozasertib; first compound 0.09487 µM)	relative viability (Dinaciclib + Tozasertib; first compound 0.3 µM)	relative viability (Dinaciclib + Pemetrexed; first compound 0.009487 µM)	relative viability (Dinaciclib + Pemetrexed; first compound 0.03 µM)	relative viability (Dinaciclib + Pemetrexed; first compound 0.09487 µM)	relative viability (Dinaciclib + Pemetrexed; first compound 0.3 µM)
NCI-H2405	0.795	0.0802	0.0747	0.0589	1.02	0.256	0.248	0.238	0.625	0.409	0.226	0.198	0.619	0.2	0.213	0.208	0.803	0.247	0.213	0.209
NCI-H3122	0.973	0.156	0.119	0.142	1.02	0.131	0.0904	0.0928	0.407	0.108	0.0984	0.114	0.169	0.091	0.0926	0.0829	0.245	0.106	0.0981	0.0956
PC-3 [JPC-3]	0.764	0.713	0.394	0.2	1.09	0.93	0.254	0.224	0.764	0.693	0.249	0.209	0.889	0.745	0.274	0.215	1.12	0.53	0.289	0.285
PC-14	0.78	0.0911	0.0667	0.0708	0.841	0.543	0.0986	0.0886	0.66	0.0841	0.0393	0.0423	0.454	0.0566	0.0448	0.038	0.111	0.0682	0.0557	0.0571
RERF-LC-KJ	0.906	0.172	0.122	0.169	0.902	0.635	0.15	0.101	0.461	0.177	0.185	0.182	0.45	0.18	0.179	0.167	0.489	0.161	0.126	0.121
SK-LU-1	0.746	0.0883	0.0998	0.11	0.579	0.158	0.139	0.121	0.425	0.116	0.145	0.112	0.329	0.132	0.131	0.119	0.97	0.226	0.229	0.185
SK-MES-1	1.26	0.131	0.114	0.119	0.962	0.189	0.135	0.137	0.559	0.13	0.136	0.149	0.777	0.157	0.156	0.139	0.799	0.192	0.179	0.168
SW 1573	0.919	0.0461	0.0459	0.0437	0.827	0.526	0.0711	0.0971	0.372	0.0612	0.0644	0.0645	0.141	0.0738	0.0542	0.0806	0.345	0.0723	0.07	0.0635
UMC-11	0.133	0.103	0.113	0.102	0.277	0.189	0.166	0.19	0.267	0.203	0.177	0.153	0.2	0.215	0.202	0.173	0.411	0.18	0.189	0.146
